{
  "source": "patent US5096896A",
  "about": "“Sustained release compositions” (National Research Development Corporation, priority 1981, dated 1992)",
  "key": {"[1]": {"system": "Plasmodium berghei (N strain)", "assay": "Experiment 1: P. berghei challenge of mice after sc injection of derivative oil with or without pyrimethamine", "assay_type": "in vivo, Plasmodium berghei in mice (Tuck TFW male white)", "procedure": "In the following experiments several derivative oils of this invention, prepared as aforesaid, were evaluated and compared for suitability as matrixes for active substances in the preparation of injectable depot antimalarial systems.\nDepot preparations were made up by adding, by hand mixing, powdered active substance to the respective oil at 30% w/w.\nTwenty-eight groups of mice, 5 mice per group, were selected at random from pooled Tuck TFW male white mice of approximately body weight 20 g. The mice were provided with food and water ad libitum. Care was taken that the diet contained adequate levels of p-aminobenzoic acid and that the mouse stock was free from infection with Eperythrozoon coccoides.\nOn day 0 the groups of mice were processed as follows:\n(§1) Subcutaneous injections were administered in the mid dorsal, suprascapular position. Cages were examined daily and all deaths recorded. Mice were examined for evidence of local irritation at the site of injection.\nOn day 7, groups (cages) 1 to 7 inclusive were infected with Plasmodium berghei (N strain). 0.2 ml of an inoculum containing 1×10^6 infected mouse erythrocytes was injected into the tail vein of each recipient mouse. The presence or absence of patent malarial infection was determined by blood film examination three days post infection and at intervals thereafter. Standard procedures were employed in the examination of Giemsa stained blood films and in the determination of parasitaemia levels. The method of infection and the techniques for assessment of parasitaemia were as described previously. Some groups in which no parasitaemia developed after the initial inoculation with P. berghei were subsequently reinfected on the days illustrated in Table 5."}, "[2]": {"system": "Plasmodium berghei (N strain)", "assay": "Experiment 2: P. berghei challenge of mice after sc injection of oil/pyrimethamine mixtures", "assay_type": "in vivo, Plasmodium berghei in mice (Tuck TFW)", "procedure": "This experiment was designed to extend the observation presented above in Experiment 1. All basic experimental procedures, including the preparation of 30% w/w dispersions of pyrimethamine base in S1, S2 and S3, were performed as described above. The primary objective was to obtain confirmation of the results obtained above whilst extending the period of observation. […] Twenty-seven groups of mice, with 5 mice in each, were again selected at random from pooled male white mice (Tuck TFW) of 20 gm body weight. Individual groups received 50 mg injections sc of S1 + pyrimethamine, S2 + pyrimethamine, S3 + pyrimethamine or S2 above. The distribution of groups is shown below:\nAt intervals of 14 days one group of mice from each of the different classes of inocula were infected by the intravenous injection of 1×10^6 mouse erythrocytes parasitised with P. berghei (N strain).\nThe examination of mice for P. berghei infection was performed as described above in Experiment 1."}, "[3]": {"system": "P. berghei drug sensitive N strain", "assay": "Experiment 4: protection against drug sensitive N strain P. berghei", "assay_type": "in vivo, Plasmodium berghei in mice", "procedure": "(§2) This experiment was designed to ascertain whether the sustained release composition of this invention could be utilised for the release of a mixture of active substances from a single depot. Preparations of 30% sulphadiazine + 10% pyrimethamine base in S2 (a new batch prepared as in Example 6) were blended and injected sc in 50 mg aliquots into mice in the suprascapular position. Additional groups of mice received S2 alone or no drug. Three groups of mice with S2 + drugs and 1 group with S2 alone were prepared for challenge on each of days 28, 42, 56 and 70. At each time interval one group each of the S2 + drug mice were challenged by the inoculation iv of 1×10^6 mouse erythrocytes infected with the drug sensitive N strain of P. berghei, the pyrimethamine resistant PYR strain and the sulphonamide resistant ORA strain, respectively. The group of mice with S2 alone was challenged with N strain parasites. Additional groups of control mice without oil were dosed with pyrimethamine (60 mg/kg) and orisulf (1000 mg/kg) immediately post-infection."}, "P. berghei": {"system": "P. berghei", "assay": "Experiment 5: duration of protection by tetracycline in derivative oils", "assay_type": "in vivo, Plasmodium berghei in mice", "settings": "30% tetracycline hydrochloride in oil, 100 mg sc", "procedure": "This experiment (which is incomplete) was designed to ascertain the suitability of the derivatives of this invention in the administration of antibiotics. All basis experimental procedures were as described above except that the mice received 100 mg of the 30% mixtures of active substance (tetracycline as free base, or tetracycline as hydrochloride)."}, "mice (site of injection)": {"system": "mice (site of injection)", "assay": "Tissue reaction and residual oil at the site of injection", "assay_type": "in vivo", "procedure": "as §1\n(§3) An extensive toxicological investigation of the oils, either alone or in combination with antimalarials, has not been undertaken. The observations reported here are based on the behaviour and condition of mice immediately following injection of test substances, and on the development of any obvious gross pathology subsequent to drugging. All animals in experimental groups were examined at intervals for evidence of ulceration or other tissue reactions at the site of injection and mice were killed at intervals and examined for residual oil deposits and evidence of adverse tissue reactions to such deposits."}, "[4]": {"system": "P. berghei sulphonamide resistant ORA strain", "assay": "Experiment 4: protection against sulphonamide resistant ORA strain P. berghei", "assay_type": "in vivo, Plasmodium berghei in mice", "settings": "1 x 1000 mg/kg, 0 (day 42 of exp)", "procedure": "as §2"}, "[5]": {"system": "P. berghei pyrimethamine resistant PYR strain", "assay": "Experiment 4: protection against pyrimethamine resistant PYR strain P. berghei", "assay_type": "in vivo, Plasmodium berghei in mice", "settings": "1 x 60 mg/kg, 0 (day 42 of exp)", "procedure": "as §2"}, "mice": {"system": "mice", "assay": "Toxicity of the derivative oils, alone or with drug, in mice", "assay_type": "in vivo", "from_the_text": "as §3"}},
  "note": "“Also recorded” adds a separate entry of the source.",
  "data": [
    {"smiles": "CCOC1CCCC(COC(=O)C2CCCC(OCC)O2)O1", "note": "(centres unmarked) [Example S2]", "values": [
      {"measurement": "Parasitaemia (%) on days post infection", "setting": "[1]; infected 7 days after drugging, day 3, 50 mg sc", "value": 11.2, "unit": "%"},
      {"measurement": "Parasitaemia (%) on days post infection", "setting": "[1]; infected 7 days after drugging, day 10, * estimated, 1 only survivor", "value": "~80", "unit": "%"},
      {"measurement": "Parasitaemia (%) on days post infection", "setting": "[1]; infected 21 days after drugging, day 3, 50 mg sc", "value": 24, "unit": "%"},
      {"measurement": "Parasitaemia (%) on days post infection", "setting": "[1]; infected 21 days after drugging, day 10, * estimated, 1 only survivor", "value": "~80", "unit": "%"},
      {"measurement": "Parasitaemia (%) on days post infection", "setting": "[1]; infected 32 days after drugging, day 3", "value": 11.6, "unit": "%"},
      {"measurement": "Parasitaemia (%) on days post infection", "setting": "[1]; infected 32 days after drugging, day 7", "value": 56, "unit": "%"},
      {"measurement": "Malaria parasites in blood on day 3 post-infection", "setting": "[1]; infected day 45, groups 24 and 25", "value": "no malaria parasite was observed"},
      {"measurement": "Parasitaemia (%) on days post infection", "setting": "[1]; infected days 45, 48 after drugging, day 3 (first value)", "value": 0, "unit": "%"},
      {"measurement": "Parasitaemia (%) on days post infection", "setting": "[1]; infected days 45, 48 after drugging, day 3 (second value, after the slash)", "value": 8.8, "unit": "%"},
      {"measurement": "Parasitaemia (%) on days post infection", "setting": "[1]; infected days 45, 48 after drugging, day 7", "value": 16.4, "unit": "%"},
      {"measurement": "Parasitaemia (%) on days post infection", "setting": "[1]; infected days 45, 48 after drugging, day 10", "value": 80, "unit": "%"},
      {"measurement": "Minimum period of protection of mice with pyrimethamine", "setting": "[1]; oil with pyrimethamine, 50 mg sc", "value": "≥ 9", "unit": "weeks"},
      {"measurement": "Duration of antimalarial protection", "setting": "[2]; 50 mg sc, 30% w/w pyrimethamine base", "value": "not less than 12 weeks"},
      {"measurement": "Parasitaemia on days post infection", "setting": "[2]; challenge day 14, day 3/4, a: only one mouse surviving", "value": 41, "unit": "%"},
      {"measurement": "Parasitaemia on days post infection", "setting": "[2]; challenge day 14, day 7/8, a: only one mouse surviving", "value": 80, "unit": "%"},
      {"measurement": "Parasitaemia on days post infection", "setting": "[2]; challenge day 28, day 3/4", "value": 26, "unit": "%"},
      {"measurement": "Parasitaemia on days post infection", "setting": "[2]; challenge day 28, day 7/8", "value": 50, "unit": "%"},
      {"measurement": "Parasitaemia on days post infection", "setting": "[2]; challenge day 42, day 3/4", "value": 3.7, "unit": "%"},
      {"measurement": "Parasitaemia on days post infection", "setting": "[2]; challenge day 42, day 7/8", "value": 32, "unit": "%"},
      {"measurement": "Parasitaemia on days post infection", "setting": "[2]; challenge day 56, day 3/4", "value": 26, "unit": "%"},
      {"measurement": "Parasitaemia on days post infection", "setting": "[2]; challenge day 56, day 7/8", "value": 70, "unit": "%"},
      {"measurement": "Parasitaemia on days post infection", "setting": "[2]; challenge day 56, day 10", "value": 78, "unit": "%"},
      {"measurement": "Parasitaemia on days post infection", "setting": "[2]; challenge day 70, day 3/4", "value": 23, "unit": "%"},
      {"measurement": "Parasitaemia on days post infection", "setting": "[2]; challenge day 70, day 7/8", "value": 74, "unit": "%"},
      {"measurement": "Parasitaemia on days post infection", "setting": "[2]; challenge day 70, day 10, a: only one mouse surviving", "value": 80, "unit": "%"},
      {"measurement": "Parasitaemia on days post infection", "setting": "[2]; challenge day 84, day 3/4", "value": 29.6, "unit": "%"},
      {"measurement": "Parasitaemia on days post infection", "setting": "[2]; challenge day 84, day 7/8, c: one mouse of 5 patent", "value": 70, "unit": "%"},
      {"measurement": "Parasitaemia on days post infection", "setting": "[2]; challenge day 84, day 10", "value": 80, "unit": "%"},
      {"measurement": "Mice with patent parasitaemia post-challenge", "setting": "[3]; challenge day 28, day 3", "value": "5/5"},
      {"measurement": "Mice with patent parasitaemia post-challenge", "setting": "[3]; challenge day 28, day 7", "value": "5/5"},
      {"measurement": "Mice with patent parasitaemia post-challenge", "setting": "[3]; challenge day 42, day 3", "value": "5/5"},
      {"measurement": "Mice with patent parasitaemia post-challenge", "setting": "[3]; challenge day 42, day 7", "value": "2/2"},
      {"measurement": "Mice with patent parasitaemia post-challenge", "setting": "[3]; challenge day 56, day 3", "value": "5/5"},
      {"measurement": "Mice with patent parasitaemia post-challenge", "setting": "[3]; challenge day 56, day 7", "value": "5/5"},
      {"measurement": "Duration of protection (days), tetracycline HCl", "setting": "P. berghei", "value": "< 7", "unit": "days"},
      {"measurement": "Residual injected oil at injection site", "setting": "mice (site of injection); 54 days after injection", "value": "Residues of the injected material were found in each of the 5 mice; also recorded: Somewhat greater quantities, albeit small amounts"},
      {"measurement": "Persistence of oil in vivo", "setting": "mice (site of injection); in words", "value": "stable for a surprisingly long time in vivo"},
      {"measurement": "Tissue reaction to oil at injection site", "setting": "mice (site of injection); oil alone, autopsy at 54 days", "value": "No evidence of adverse tissue reaction; also recorded: no marked fibrosis or vascularisation of the oil depot site"}
    ]},
    {"smiles": "Nc1ccc(S(=O)(=O)Nc2ccnn2-c2ccccc2)cc1", "note": "[orisulf]", "values": [
      {"measurement": "Mice with patent parasitaemia post-challenge", "setting": "[4]; day 3", "value": "5/5"},
      {"measurement": "Mice with patent parasitaemia post-challenge", "setting": "[4]; day 7", "value": "5/5"},
      {"measurement": "Mice with patent parasitaemia post-challenge", "setting": "[4]; day 10", "value": "5/5"}
    ]},
    {"smiles": "CCc1nc(N)nc(N)c1-c1ccc(Cl)cc1", "note": "[pyr, pyrimethamine]", "values": [
      {"measurement": "Mice with patent parasitaemia post-challenge", "setting": "[5]; day 3", "value": "5/5"},
      {"measurement": "Mice with patent parasitaemia post-challenge", "setting": "[5]; day 7", "value": "4/4"},
      {"measurement": "Mice with patent parasitaemia post-challenge", "setting": "[5]; day 10", "value": "4/4"},
      {"measurement": "Mice dead at 24 hours", "setting": "mice; mouse, in vivo", "value": "One of 5 mice"}
    ]},
    {"smiles": "CCc1nc(N)nc(N)c1-c1ccc(Cl)cc1", "note": "[pyrimethamine isethionate]", "values": [
      {"measurement": "Mortality after dosing", "setting": "mice; mouse, in vivo", "value": "all mice died within 1 hour of dosing"},
      {"measurement": "Distress after dosing", "setting": "mice; sc, equivalent to 750 mg/kg and 1500 mg/kg base", "value": "induced distress in animals within minutes"}
    ]}
  ]
}
